Source: the supplement of paper PMC10307832

Assays:
Assay in all cases: relative viability (nuclei count vs DMSO), 5 days (fraction); higher = more cells survive
201T = tested on: 201T
Method in brief: (§1)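 Lung cancer cell lines in 1536-well plates got either a single drug or a fixed anchor-drug dose together with five library-drug doses (not always all listed) in √10 steps, by pin tool, on the day after seeding. Nuclei were counted after 5 days, and relative viability is the treated-to-vehicle ratio of nuclei counts. Values are medians of duplicate plates.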

BEN = tested on: BEN
Method in brief: as §1

COR-L 105 = tested on: COR-L 105
Method in brief: as §1

EKVX = tested on: EKVX
Method in brief: as §1

EPLC-272H = tested on: EPLC-272H
Method in brief: as §1

H3255 = tested on: H3255
Method in brief: as §1

HCC-44 = tested on: HCC-44
Method in brief: as §1

HCC-827 = tested on: HCC-827
Method in brief: as §1

HOP-62 = tested on: HOP-62
Method in brief: as §1

LCLC-97TM1 = tested on: LCLC-97TM1
Method in brief: as §1

LOU-NH91 = tested on: LOU-NH91
Method in brief: as §1

LU99A = tested on: LU99A
Method in brief: as §1

NCI-H1395 = tested on: NCI-H1395
Method in brief: as §1

NCI-H1437 = tested on: NCI-H1437
Method in brief: as §1

NCI-H1666 = tested on: NCI-H1666
Method in brief: as §1

NCI-H1975 = tested on: NCI-H1975
Method in brief: as §1

NCI-H2085 = tested on: NCI-H2085
Method in brief: as §1

NCI-H2087 = tested on: NCI-H2087
Method in brief: as §1

NCI-H2126 = tested on: NCI-H2126
Method in brief: as §1

NCI-H358 = tested on: NCI-H358
Method in brief: as §1

NCI-H647 = tested on: NCI-H647
Method in brief: as §1

PC-3 [JPC-3] = tested on: PC-3 [JPC-3]
Method in brief: as §1

SW 1573 = tested on: SW 1573
Method in brief: as §1

For C[C@@H]1CN(CC(=O)Nc2ccc3c(c2)Cc2cccc(-c4cc(=O)cc(N5CCOCC5)o4)c2S3)C[C@H](C)O1 + C[C@]1(O)C[C@@H](c2nc(-c3ccc4ccc(-c5ccccc5)nc4c3)c3c(N)nccn32)C1 [Linsitinib] (partner 1 µM), the relative viability (201T; first compound 0.04 µM) was 1.09, the relative viability (201T; first compound 0.1265 µM) was 1.01 and the relative viability (201T; first compound 0.4 µM) was 1.01. The relative viability (201T; first compound 4 µM) was 1.01, the relative viability (BEN; first compound 0.04 µM) was 0.782 and the relative viability (BEN; first compound 0.1265 µM) was 0.832. The relative viability (BEN; first compound 0.4 µM) was 1.1, the relative viability (BEN; first compound 4 µM) was 0.86 and the relative viability (COR-L 105; first compound 0.04 µM) was 1.01. For the same compound, the relative viability (COR-L 105; first compound 0.1265 µM) was 1.1, the relative viability (COR-L 105; first compound 0.4 µM) was 0.746 and the relative viability (COR-L 105; first compound 4 µM) was 0.996. The relative viability (EKVX; first compound 0.04 µM) was 0.954, the relative viability (EKVX; first compound 0.1265 µM) was 0.982 and the relative viability (EKVX; first compound 0.4 µM) was 0.963. It also gave a relative viability (EKVX; first compound 4 µM) of 0.972, a relative viability (EPLC-272H; first compound 0.04 µM) of 1.24 and a relative viability (EPLC-272H; first compound 0.1265 µM) of 1.12. For the same compound, the relative viability (EPLC-272H; first compound 0.4 µM) was 1.17, the relative viability (EPLC-272H; first compound 4 µM) was 1.36 and the relative viability (H3255; first compound 0.04 µM) was 0.934. For the same compound, the relative viability (H3255; first compound 0.1265 µM) was 1.04, the relative viability (H3255; first compound 0.4 µM) was 0.818 and the relative viability (H3255; first compound 4 µM) was 0.879. For the same compound, the relative viability (HCC-44; first compound 0.04 µM) was 0.636, the relative viability (HCC-44; first compound 0.1265 µM) was 0.683 and the relative viability (HCC-44; first compound 0.4 µM) was 0.537. The relative viability (HCC-44; first compound 4 µM) was 0.632, the relative viability (HCC-827; first compound 0.04 µM) was 1 and the relative viability (HCC-827; first compound 0.1265 µM) was 0.895. The relative viability (HCC-827; first compound 0.4 µM) was 0.978, the relative viability (HCC-827; first compound 4 µM) was 0.954 and the relative viability (HOP-62; first compound 0.04 µM) was 0.93. For the same compound, the relative viability (HOP-62; first compound 0.1265 µM) was 0.945, the relative viability (HOP-62; first compound 0.4 µM) was 0.897 and the relative viability (HOP-62; first compound 4 µM) was 0.947. It also gave a relative viability (LCLC-97TM1; first compound 0.1265 µM) of 0.157, a relative viability (LCLC-97TM1; first compound 0.4 µM) of 0.204 and a relative viability (LCLC-97TM1; first compound 4 µM) of 0.204. For the same compound, the relative viability (LOU-NH91; first compound 0.04 µM) was 1.02, the relative viability (LOU-NH91; first compound 0.1265 µM) was 0.956 and the relative viability (LOU-NH91; first compound 0.4 µM) was 0.906. It also gave a relative viability (LOU-NH91; first compound 4 µM) of 0.93, a relative viability (LU99A; first compound 0.04 µM) of 0.489 and a relative viability (LU99A; first compound 0.1265 µM) of 0.46. The relative viability (LU99A; first compound 0.4 µM) was 0.572, the relative viability (LU99A; first compound 4 µM) was 0.596 and the relative viability (NCI-H1395; first compound 0.04 µM) was 1.14. For the same compound, the relative viability (NCI-H1395; first compound 0.1265 µM) was 1.16, the relative viability (NCI-H1395; first compound 0.4 µM) was 0.992 and the relative viability (NCI-H1395; first compound 4 µM) was 0.953. The relative viability (NCI-H1437; first compound 0.04 µM) was 1.01, the relative viability (NCI-H1437; first compound 0.1265 µM) was 0.989 and the relative viability (NCI-H1437; first compound 0.4 µM) was 0.939. For the same compound, the relative viability (NCI-H1437; first compound 4 µM) was 0.575, the relative viability (NCI-H1666; first compound 0.04 µM) was 1.08 and the relative viability (NCI-H1666; first compound 0.1265 µM) was 0.908. For the same compound, the relative viability (NCI-H1666; first compound 0.4 µM) was 0.839, the relative viability (NCI-H1666; first compound 4 µM) was 0.565 and the relative viability (NCI-H1975; first compound 0.04 µM) was 0.895. For the same compound, the relative viability (NCI-H1975; first compound 0.1265 µM) was 0.866, the relative viability (NCI-H1975; first compound 0.4 µM) was 0.81 and the relative viability (NCI-H1975; first compound 4 µM) was 0.8. It also gave a relative viability (NCI-H2085; first compound 0.04 µM) of 0.992, a relative viability (NCI-H2085; first compound 0.1265 µM) of 0.803 and a relative viability (NCI-H2085; first compound 0.4 µM) of 0.827. For the same compound, the relative viability (NCI-H2085; first compound 4 µM) was 0.724, the relative viability (NCI-H2087; first compound 0.04 µM) was 0.939 and the relative viability (NCI-H2087; first compound 0.1265 µM) was 1. It also gave a relative viability (NCI-H2087; first compound 0.4 µM) of 0.91, a relative viability (NCI-H2087; first compound 4 µM) of 0.772 and a relative viability (NCI-H2126; first compound 0.04 µM) of 0.765. The relative viability (NCI-H2126; first compound 0.1265 µM) was 0.762, the relative viability (NCI-H2126; first compound 0.4 µM) was 0.707 and the relative viability (NCI-H2126; first compound 4 µM) was 0.722. The relative viability (NCI-H358; first compound 0.04 µM) was 0.854, the relative viability (NCI-H358; first compound 0.1265 µM) was 0.733 and the relative viability (NCI-H358; first compound 0.4 µM) was 0.703. For the same compound, the relative viability (NCI-H358; first compound 4 µM) was 0.487, the relative viability (NCI-H647; first compound 0.04 µM) was 1.28 and the relative viability (NCI-H647; first compound 0.1265 µM) was 1.12. The relative viability (NCI-H647; first compound 0.4 µM) was 0.926, the relative viability (NCI-H647; first compound 4 µM) was 0.76 and the relative viability (PC-3 [JPC-3]; first compound 0.04 µM) was 1.06. For the same compound, the relative viability (PC-3 [JPC-3]; first compound 0.1265 µM) was 0.993, the relative viability (PC-3 [JPC-3]; first compound 0.4 µM) was 0.952 and the relative viability (PC-3 [JPC-3]; first compound 4 µM) was 0.868. For the same compound, the relative viability (SW 1573; first compound 0.04 µM) was 0.814, the relative viability (SW 1573; first compound 0.1265 µM) was 0.914 and the relative viability (SW 1573; first compound 0.4 µM) was 0.646. The relative viability (SW 1573; first compound 4 µM) was 0.771.
